Measurements: PubChem BioAssay AID248 (DTP/NCI, 2004)
Values joined by “and” are separate entries in the source; they are usually repeats but may differ in a detail not shown here. Identical values can stand only once. Inconclusive results and toxic doses are left out.

System: L1210 leukemia ip in BDF1 mice, survival T/C
Test: NCI In Vivo Anticancer Drug Screen. Data for tumor model L1210 Leukemia (intraperitoneal) in B6D2F1 (BDF1) mice
Conditions: endpoint: mean survival time, higher = longer survival
In short: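 Survival endpoint. Drug-treated group vs vehicle group, expressed as T divided by C. Tumor passaged by transplantation.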

[1] = dose: 100.0 mg/kg/injection, schedule: Q01DX009 (ip), vehicle: Klucel (hydroxypropylcellulose) (HPC)
[2] = dose: 200.0 mg/kg/injection, schedule: Q01DX009 (ip), vehicle: Klucel (hydroxypropylcellulose) (HPC)
[3] = dose: 400.0 mg/kg/injection, schedule: Q01DX009 (ip), vehicle: Klucel (hydroxypropylcellulose) (HPC)
[4] = dose: 100.0 mg/kg/injection, schedule: Q04DX003 (ip), vehicle: saline
[5] = dose: 200.0 mg/kg/injection, schedule: Q04DX003 (ip), vehicle: saline
[6] = dose: 400.0 mg/kg/injection, schedule: Q04DX003 (ip), vehicle: saline
[7] = dose: 100.0 mg/kg/injection, schedule: Q01DX001 (ip), vehicle: carboxymethylcellulose (CMC)
[8] = dose: 200.0 mg/kg/injection, schedule: Q01DX001 (ip), vehicle: carboxymethylcellulose (CMC)
[9] = dose: 400.0 mg/kg/injection, schedule: Q01DX001 (ip), vehicle: carboxymethylcellulose (CMC)
[10] = dose: 100.0 mg/kg/injection, schedule: Q01DX001 (ip), vehicle: saline
[11] = dose: 200.0 mg/kg/injection, schedule: Q01DX001 (ip), vehicle: saline
[12] = dose: 400.0 mg/kg/injection, schedule: Q01DX001 (ip), vehicle: saline
[13] = dose: 100.0 mg/kg/injection, schedule: Q04DX003 (ip), vehicle: saline with Tween-80
[14] = dose: 200.0 mg/kg/injection, schedule: Q04DX003 (ip), vehicle: saline with Tween-80
[15] = dose: 400.0 mg/kg/injection, schedule: Q04DX003 (ip), vehicle: saline with Tween-80
[16] = dose: 100.0 mg/kg/injection, schedule: Q01DX009 (ip), vehicle: saline with Tween-80
[17] = dose: 200.0 mg/kg/injection, schedule: Q01DX009 (ip), vehicle: saline with Tween-80
[18] = dose: 400.0 mg/kg/injection, schedule: Q01DX009 (ip), vehicle: saline with Tween-80

Structure (SMILES): N#CCSc1nc(N)nc2nc[nH]c12
- T/C (dose: 62.5 mg/kg/injection, schedule: Q01DX Z (ip), vehicle: methylcellulose (MC)): 101 % of control
- T/C (dose: 125.0 mg/kg/injection, schedule: Q01DX Z (ip), vehicle: methylcellulose (MC)): 105 % of control

Structure (SMILES): O=C(C[n+]1ccc2ccccc2c1)c1ccc([N+](=O)[O-])cc1
- T/C (dose: 12.5 mg/kg/injection, schedule: Q04DX003 (ip), vehicle: saline): 101 % of control
- T/C (dose: 25.0 mg/kg/injection, schedule: Q04DX003 (ip), vehicle: saline): 103 % of control
- T/C (dose: 50.0 mg/kg/injection, schedule: Q04DX003 (ip), vehicle: saline): 107 % of control

Structure (SMILES): ClCCN(CCN(CCCl)c1ccccc1)c1ccccc1
- T/C [1]: 113 % of control
- T/C [2]: 108 % of control
- T/C [3]: 115 % of control

Structure (SMILES): Cc1ccc(S(=O)(=O)c2ccccc2)cc1
- T/C [4]: 103 % of control
- T/C [5]: 91 % of control
- T/C [6]: 95 % of control

Structure (SMILES): SC1c2cc(Cl)ccc2-c2c(Cl)cc(Cl)cc21 (stereo not given)
- T/C [7]: 93 % of control
- T/C [8]: 98 % of control
- T/C [9]: 117 % of control

Structure (SMILES): COc1c(NC(=O)c2cccc(C(=O)Nc3cccc([N+](=O)[O-])c3OC)c2)cccc1[N+](=O)[O-]
- T/C [1]: 96 % of control
- T/C [2]: 89 % of control
- T/C [3]: 92 % of control

Structure (SMILES): O=C(Nc1ccc(C2=NCCN2)cc1)Nc1cc(C(=O)Nc2ccc(C3=NCCN3)cc2)ccc1C(=O)Nc1ccc(C2=NCCN2)cc1
- T/C (dose: 7.5 mg/kg/injection, schedule: Q01DX Z (oral), vehicle: saline): 107 % of control
- T/C (dose: 15.0 mg/kg/injection, schedule: Q01DX Z (ip), vehicle: saline): 241 % of control
- T/C (dose: 15.0 mg/kg/injection, schedule: Q01DX Z (oral), vehicle: saline): 105 % of control
- T/C (dose: 30.0 mg/kg/injection, schedule: Q01DX Z (oral), vehicle: saline): 103 % of control
- T/C (dose: 60.0 mg/kg/injection, schedule: Q01DX Z (oral), vehicle: saline): 102 % of control
- T/C (dose: 62.5 mg/kg/injection, schedule: Q01DX010 (oral), vehicle: saline): 95 % of control
- T/C (dose: 75.0 mg/kg/injection, schedule: Q01DX Z (oral), vehicle: saline): 95 % of control
- T/C (dose: 125.0 mg/kg/injection, schedule: Q01DX010 (oral), vehicle: saline): 110 % of control
- T/C (dose: 250.0 mg/kg/injection, schedule: Q01DX010 (oral), vehicle: saline): 108 % of control
- T/C (dose: 500.0 mg/kg/injection, schedule: Q01DX010 (oral), vehicle: saline): 97 % of control

Structure (SMILES): O=C(NCCBr)Nc1ccc2c(c1)OCO2
- T/C [1]: 94 % of control
- T/C (dose: 100.0 mg/kg/injection, schedule: Q04DX003 (ip), vehicle: Klucel (hydroxypropylcellulose) (HPC)): 111 % of control
- T/C [2]: 102 % of control
- T/C (dose: 200.0 mg/kg/injection, schedule: Q04DX003 (ip), vehicle: Klucel (hydroxypropylcellulose) (HPC)): 101 % of control
- T/C [3]: 96 % of control
- T/C (dose: 400.0 mg/kg/injection, schedule: Q04DX003 (ip), vehicle: Klucel (hydroxypropylcellulose) (HPC)): 108 % of control

Structure (SMILES): CCOC(=O)c1ccc(NC(=O)Nc2cc(C(F)(F)F)ccc2Cl)cc1
- T/C [1]: 100 % of control
- T/C [2]: 104 % of control
- T/C [3]: 95 % of control

Structure (SMILES): O=C(O)C1=NN(c2cc(Cl)c(S(=O)(=O)O)cc2Cl)C(=O)C1
- T/C [4]: 92 % of control
- T/C [5]: 100 % of control
- T/C [6]: 106 % of control

Structure (SMILES): NNC(=O)c1cc(N)nc(Cl)c1
- T/C [10]: 96 % of control
- T/C [11]: 96 % of control
- T/C [12]: 98 % of control

Structure (SMILES): O=C(O)CNc1cc(S(=O)(=O)O)cc2cc(S(=O)(=O)O)cc(O)c12
- T/C [10]: 103 % of control
- T/C [4]: 103 % of control
- T/C [11]: 107 % of control
- T/C [5]: 90 % of control
- T/C [12]: 96 % of control
- T/C [6]: 92 % of control

Structure (SMILES): O=[N+]([O-])c1ccc(/C=C\c2ccc(Cl)cc2S(=O)(=O)F)c(Cl)c1
- T/C (dose: 100.0 mg/kg/injection, schedule: Q01DX009 (ip), vehicle: saline sonified): 97 % of control
- T/C [13]: 102 % of control
- T/C (dose: 200.0 mg/kg/injection, schedule: Q01DX009 (ip), vehicle: saline sonified): 97 % of control
- T/C [14]: 96 % of control
- T/C (dose: 400.0 mg/kg/injection, schedule: Q01DX009 (ip), vehicle: saline sonified): 96 % of control
- T/C [15]: 100 % of control

Structure (SMILES): CCCCOC(=O)C1=C(C(=O)OCCCC)CCCC1
- T/C [16]: 98 % of control
- T/C [17]: 104 % of control

Structure (SMILES): COC1OC(COC(=O)c2ccccc2)C(OC(=O)c2ccccc2)C(OC(=O)c2ccccc2)C1OC(=O)c1ccccc1 (stereo not given)
- T/C [16]: 116 % of control
- T/C [17]: 107 % of control
- T/C [18]: 107 % of control

Structure (SMILES): COC(=O)C(C)NC(=O)Cc1ccccc1 (stereo not given)
- T/C [16]: 94 % of control
- T/C [13]: 98 % of control
- T/C [17]: 92 % of control
- T/C [14]: 101 % of control
- T/C [18]: 92 % of control
- T/C [15]: 97 % of control

Structure (SMILES): Nc1nnnn1-c1ccccc1-c1ccccc1
- T/C [1]: 101 % of control
- T/C [2]: 104 % of control
- T/C [3]: 114 % of control

Structure (SMILES): O=C1c2ccccc2C(=O)N1CCc1ccccn1
- T/C (dose: 50.0 mg/kg/injection, schedule: Q01DX009 (ip), vehicle: saline with Tween-80): 101 % of control
- T/C [16]: 95 % of control
- T/C [13]: 102 % of control
- T/C [17]: 93 % of control
- T/C [14]: 101 % of control

Structure (SMILES): Fc1cc(N(CCCl)CCCl)ccc1CNCCCNCc1ccc(N(CCCl)CCCl)cc1F
- T/C (dose: 50.0 mg/kg/injection, schedule: Q01DX001 (ip), vehicle: carboxymethylcellulose (CMC)): 93 % of control

Structure (SMILES): CCN(CC)CC(O)COc1ccccc1C (stereo not given)
- T/C (dose: 5.0 mg/kg/injection, schedule: Q01DX001 (ip), vehicle: saline): 101 % of control
- T/C (dose: 10.0 mg/kg/injection, schedule: Q01DX001 (ip), vehicle: saline): 101 % of control
- T/C (dose: 20.0 mg/kg/injection, schedule: Q01DX001 (ip), vehicle: saline): 104 % of control
- T/C (dose: 40.0 mg/kg/injection, schedule: Q01DX001 (ip), vehicle: saline): 104 % of control
- T/C (dose: 80.0 mg/kg/injection, schedule: Q01DX001 (ip), vehicle: saline): 101 % of control
- T/C [10]: 102 % of control

Structure (SMILES): CC(=O)Nc1ccc(OC(C)=O)cc1[N+](=O)[O-]
- T/C [10]: 105 % of control
- T/C [11]: 102 % of control
- T/C [12]: 102 % of control

Structure (SMILES): CSc1cccc(NC(=S)NC(=O)c2ccccc2)c1
- T/C (dose: 25.0 mg/kg/injection, schedule: Q01DX009 (ip), vehicle: Klucel (hydroxypropylcellulose) (HPC)): 96 % of control
- T/C (dose: 50.0 mg/kg/injection, schedule: Q01DX009 (ip), vehicle: Klucel (hydroxypropylcellulose) (HPC)): 94 % of control
- T/C [1]: 91 % of control

Structure (SMILES): CC(C)CCC1(CCBr)C(=O)NC(=Nc2ccccc2)NC1=O (stereo not given)
- T/C [7]: 96 % of control
- T/C [8]: 102 % of control
- T/C [9]: 94 % of control

Structure (SMILES): Cc1ccc(N=Cc2cc(Cl)ccc2O)cc1.Cc1ccc(N=Cc2cc(Cl)ccc2O)cc1.[Co]
- T/C (dose: 25.0 mg/kg/injection, schedule: Q04DX003 (ip), vehicle: saline with Tween-80): 94 % of control
- T/C [13]: 116 % of control and 91 % of control

Structure (SMILES): COC1OC2COC(c3ccccc3)OC2C(OC(=S)N(C)C)C1OC(=S)N(C)C (stereo not given)
- T/C (dose: 100.0 mg/kg/injection, schedule: Q04DX003 (ip), vehicle: saline sonified): 94 % of control
- T/C (dose: 200.0 mg/kg/injection, schedule: Q04DX003 (ip), vehicle: saline sonified): 92 % of control
- T/C (dose: 400.0 mg/kg/injection, schedule: Q04DX003 (ip), vehicle: saline sonified): 92 % of control

Structure (SMILES): CCCCc1c(C)c2c(O)cc(C)cc2oc1=O
- T/C (dose: 100.0 mg/kg/injection, schedule: Q01DX001 (ip), vehicle: acetone): 92 % of control
- T/C (dose: 200.0 mg/kg/injection, schedule: Q01DX001 (ip), vehicle: acetone): 95 % of control
- T/C (dose: 400.0 mg/kg/injection, schedule: Q01DX001 (ip), vehicle: acetone): 92 % of control

Structure (SMILES): Cn1cnc([N+](=O)[O-])c1[Se]c1ncnc2c1ccn2C1OC(CO)C(O)C1O (stereo not given)
- T/C (dose: 6.25 mg/kg/injection, schedule: Q01DX009 (ip), vehicle: saline): 102 % of control
- T/C (dose: 12.5 mg/kg/injection, schedule: Q01DX009 (ip), vehicle: saline): 105 % of control
- T/C (dose: 25.0 mg/kg/injection, schedule: Q01DX009 (ip), vehicle: saline): 97 % of control
